Assay results published in patent US7592305B2, “Use of ghrelin for treating malnutrition in gastrectomized individuals” (Gastrotech Pharma A/S, priority 2002, dated 2009).
Ends that are not written are not given here. * marks the point of attachment. Octanoyl = CCCCCCCC(=O)*

Test system: gastrectomised rats
Assay: Treatment of totally gastrectomised (vagotomised) rats with ghrelin analogue MK-0677 by gavage
Format: in vivo, rat
Procedure: Total gastrectomy was performed and followed by end-to-end anastomosis between the esophagus and the duodenum as described in Lehto-Axtelius D., et al. Osteopenia after gastrectomy, fundectomy or antrectomy: an experimental study in the rat., Regul. Pept. 78 (1998), 41-50. The gastrectomy was accompanied by total vagotomy at the level of cardia. Sham operation was performed by opening the abdomen and moving the stomach.
In sham gastrectomised rats the ghrelin levels were 2.06±0.22 ng/ml, while they were less than the least detectable level of the assay, i e, 0.25 ng/ml after gastrectomy. From four weeks after gastrectomy the animals were administered either water or the ghrelin analogue MK-0677 by gavage once daily (4 mg/kg/day).
Food intake and body weight was measured daily and throughout the experiment. […] After two weeks of treatment, the animals were decapitated and blood and tissues collected and rapidly frozen. Gonadal, mesenteric and retroperitoneal far pads were dissected and weighed, and the sum of the weight was then calculated. Ghrelin was measured in serum using a kit purchased from Phoenix Pharmaceuticals as described (Dornonville de la Cour, supra).

[1] = 4 mg/kg/day by gavage once daily, after two weeks of treatment, vs water

Q: What does the source list for `CC(C)(N)C(=O)N[C@H](COCc1ccccc1)C(=O)N1CCC2(CC1)CN(S(C)(=O)=O)c1ccccc12` [MK677]?
A: body weight (4 mg/kg/day by gavage once daily from four weeks after gastrectomy, two weeks of treatment, vs water): increased; hypothalamic levels of neuropeptide Y (NPY) mRNA [1]: increased; sum of dissected fat pad weights (gonadal, mesenteric and retroperitoneal) [1]: enhanced

Q: With “ghrelin: acylated peptide of 28 amino acids with an octanoyl ester attached to a serine residue (GSS(Octanoyl)FLSPEHQRVQQRKESKKPPAKLQPR; listed as Homo sapiens)” as the molecule, how does the “desire for food (food intake measured daily)” value (treated once daily by gavage) read?
A: Its value is “increased”.
